The results in this text go back to patent US20240002441A1, “PEPTIDES AND USES THEREOF IN MODULATION OF AMYLOID-BETA PROTEIN DEGRADING PROTEASES” (priority 2020, published 2024).

One series has as its target T1, IDE (Homo sapiens, UniProt P14735).
T1 sequence (P14735 1-1019): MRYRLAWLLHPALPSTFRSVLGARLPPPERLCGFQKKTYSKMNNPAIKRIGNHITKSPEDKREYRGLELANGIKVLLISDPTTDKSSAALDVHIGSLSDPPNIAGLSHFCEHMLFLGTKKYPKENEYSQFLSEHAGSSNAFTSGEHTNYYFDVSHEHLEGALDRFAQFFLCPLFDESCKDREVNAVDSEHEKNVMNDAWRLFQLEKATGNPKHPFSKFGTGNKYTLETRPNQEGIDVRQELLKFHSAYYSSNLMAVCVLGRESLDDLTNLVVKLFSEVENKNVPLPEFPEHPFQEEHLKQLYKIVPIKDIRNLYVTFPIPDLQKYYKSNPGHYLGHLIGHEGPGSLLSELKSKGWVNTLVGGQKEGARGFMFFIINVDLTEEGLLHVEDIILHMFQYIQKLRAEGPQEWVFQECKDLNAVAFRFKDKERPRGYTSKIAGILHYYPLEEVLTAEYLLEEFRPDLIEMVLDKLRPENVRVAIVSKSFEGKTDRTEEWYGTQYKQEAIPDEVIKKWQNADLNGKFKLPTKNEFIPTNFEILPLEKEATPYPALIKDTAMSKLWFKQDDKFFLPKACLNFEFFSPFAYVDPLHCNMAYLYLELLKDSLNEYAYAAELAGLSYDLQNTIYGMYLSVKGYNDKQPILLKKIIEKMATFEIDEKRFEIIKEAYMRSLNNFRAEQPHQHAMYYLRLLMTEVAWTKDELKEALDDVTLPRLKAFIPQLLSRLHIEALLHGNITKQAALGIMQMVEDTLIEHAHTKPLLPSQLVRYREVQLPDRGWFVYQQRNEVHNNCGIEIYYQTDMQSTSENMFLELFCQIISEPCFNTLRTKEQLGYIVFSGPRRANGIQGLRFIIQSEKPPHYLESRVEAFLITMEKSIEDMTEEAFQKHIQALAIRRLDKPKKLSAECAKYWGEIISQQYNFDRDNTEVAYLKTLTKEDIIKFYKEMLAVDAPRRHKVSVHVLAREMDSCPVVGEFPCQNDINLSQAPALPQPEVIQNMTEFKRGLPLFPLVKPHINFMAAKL
Kind of series: QFS assay of Aβ-degrading enzymes: IDE (Example 6). The series is classed as biochemical. On the procedure: Plate reader-based enzyme assays were performed using a quenched fluorescent substrate (QFS) in a 96-well format using a SpectraMAX M4 Microplate reader (Molecular Devices). The increase in fluorescence following addition of QFS (40 μM) was taken as evidence of enzyme activity. Fluorescence was monitored over 2 h at 37° C. using κEx=320 nm and λEm=405 nm. Assays were conducted in black 96-well plates. Specific enzyme activity was expressed as a rate of substrate cleavage calculated using a standard curve of 7-methoxy-coumarin-4-acetic acid.
In all plate reader-based enzyme assays using QFS, the reaction rate (μmol of substrate cleaved/min) was calculated using linear regression analysis (GraphPad Prism software version 8.01). The reaction rates calculated were used to generate the enzyme kinetic parameters Vmax and Km through non-linear regression analysis (GraphPad Prism software, version 8.01; Michaelis-Menten equation). Where indicated, enzyme activity in the presence of peptide was expressed as a % of the enzyme alone. Data were expressed as mean±SEM and statistical significance was determined using t-tests or one-way ANOVAs followed by Tukey's post-hoc test. P<0.05 was considered as statistically significant. In all assays conducted using 96-well plates, the reaction mixtures in each well were considered an independent experiment.
SEQ ID NO:2 was assessed in a QFS assay against enzymes NEP, ECE1, ECE2, ACE1, ACE2, IDE and MMP-2 using the method in Example 2 and the following procedure. NEP, ACE1, ECE2 (0.05 ng/μL), ACE2, IDE (0.10 ng/μL), and ECE1 (6.4 ng/μL) were incubated with SEQ ID NO:2 (0.9-26 μM) or scrambled control (9 μM) for 1 h at 37° C. Prior to use, MMP2 (0.50 ng/μL) was activated using p-aminophenylmercuric acetate to a final concentration of 100 μM for 1 h at 37° C. Following activation, MMP2 was incubated with SEQ ID NO:2 for 1 h at 37° C. before adding the appropriate QFS.

The test system of another series is EA.hy926 cells. Kind of series: Peptide stability study in EA.hy926 endothelial cells, LCMS (Example 4). The class given is in vitro ADME. The following applies: peptide 9 μM, Opti-MEM. The procedure:
SEQ ID NO:2 was prepared as a C-terminal amidated analogue of SEQ ID NO:1. The stability of SEQ ID NO:1 and SEQ ID NO:2 was assessed in HEK293 and EA.hy926 cells grown in culture and their break down was monitored by LCMS over 60 min using the following procedure.
HEK293 (passage 24) or Ea.hy926 (passage 37) were seeded into tissue-culture-grade 96-well plates at a density of 20,000 cells/well. After 24 hr, cells were washed with PBS and replaced with Opti-MEM reduced serum media containing SEQ ID NO:1 or SEQ ID NO:2 (9 μM). Aliquots of equal volume were taken at T=0 and 60 min. SEQ ID NO:2 was added to control wells having media (no cells) only. Samples were immediately acidified in 0.1% TFA, snap frozen in dry ice and stored in −80° C. until analysed by LCMS.
Samples were analyzed by LC-MS/MS on a Shimadzu Nexera uHPLC (Japan) coupled to a Triple Tof 5600 mass spectrometer (ABSCIEX, Canada) equipped with a duo electrospray ion source. One μL of each extract was injected onto a 2.1 mm×100 mm Zorbax C18 1.8 um column (Agilent) at 200 μL/min. […] SEQ ID NO:1 and SEQ ID NO:2 were quantified using the […] doubly charged molecular ion from m/z 510.270 to 510.325. The data was acquired using Analyst TF 1.6 and quantification was carried out using MultiQuant 2.1.1 software (ABSCIEX, Canada).

In the case of “H-SLFELGKMIL-NH2 [SEQ ID NO:2, H2N-SLFELGKMIL-NH2]”, the “IDE activity compared with respective enzyme alone” value is recorded as “did not increase” on IDE (peptide 2 μM (FIG. 2c)); “significantly higher” at IDE (peptide 9 μM, significantly less compared with ACE2 and NEP). Besides, the “IDE activity, concentration dependence” value on IDE (peptide 0.9-26 μM) is reported as “increased the activity”. The “relative amount remaining in the medium of endothelial cells at 60 min” value with EA.hy926 cells is given as 26%±5%.
